# Results published in patent US10357493B2, “Metalloenzyme inhibitor compounds” (Selenity Therapeutics (Bermuda), Ltd., priority 2017, dated 2019).
# pIC50: −log10 of the molar value. Like-named read-outs stand apart in the source and are kept apart here.
# What was measured:
# Type in all cases: biochemical
# HDAC7 = HDAC7 (Homo sapiens (Human), UniProt Q8WUI4); experiment: HDAC7 enzymatic assay; settings: selectivity profile; read-out: HDAC Enzyme IC50, HDAC 7
# Experimental: (§1) All enzymatic reactions were conducted in duplicate at room temperature for 17 hours in a 50 μl mixture containing HDAC assay buffer (50 mM Tris-HCl, pH 7.4, 137 mM NaCl, 2.7 mM KCl, 0.05% Tween 20, 5 μg BSA), an HDAC substrate, an HDAC enzyme, and a test compound. Compound dilution was prepared ten-fold higher than the final concentration of the compounds with 10% DMSO in HDAC assay buffer and 5 μl of the dilution was added to a 50 μl reaction so that the final concentration of DMSO is 1% in all of reactions. After enzymatic reactions, 50 μl of HDAC Developer was added to each well and the plate was incubated at room temperature for an additional 20 minutes. Fluorescence intensity was measured at an excitation of 360 nm and an emission of 460 nm using a Tecan Infinite M1000 or Biotek Synergy microplate reader.
# (§2) The fluorescent intensity data were analyzed using the computer software, Graphpad Prism. In the absence of the compound, the fluorescent intensity (Ft) in each data set was defined as 100% activity. In the absence of HDAC, the fluorescent intensity (Fb) in each data set was defined as 0% activity. The percent activity in the presence of each compound was calculated according to the following equation: % activity=(F−Fb)/(Ft−Fb), where F=the fluorescent intensity in the presence of the compound.
# (§3) The values of % activity versus a series of compound concentrations were then plotted using non-linear regression analysis of Sigmoidal dose-response curve generated with the equation Y=B+(T−B)/1+10((Log EC50−X)×Hill Slope), where Y=percent activity, B=minimum percent activity, T=maximum percent activity, X=logarithm of compound and Hill Slope=slope factor or Hill coefficient. The IC50 value was determined by the concentration causing a half-maximal percent activity.
# (§4) HDAC1 enzymatic assays contained 0.5 ng HDAC1 and 10 uM of HDAC substrate. HDAC2 enzymatic assays contained 0.5 ng HDAC2 and 10 uM of HDAC substrate. HDAC3 enzymatic assays contained 0.4 ng HDAC3/NCOR2 and 10 uM of HDAC substrate. HDAC4 enzymatic assays contained 0.02 ng HDAC4 and 2 uM of HDAC substrate. HDAC5 enzymatic assays contained 0.5 ng HDAC5 and 2 uM of HDAC substrate. HDAC6 enzymatic assays contained 2 ng HDAC6 and 10 uM of HDAC substrate. HDAC7 enzymatic assays contained 0.05 ng HDAC7 and 2 uM of HDAC substrate. HDAC8 enzymatic assays contained 5 ng HDAC8 and 2 uM of HDAC substrate. HDAC9 enzymatic assays contained 1 ng HDAC9 and 2 uM of HDAC substrate. HDAC10 enzymatic assays contained 75 ng HDAC10 and 10 uM of HDAC substrate. HDAC11 enzymatic assays contained 5 ng HDAC11 and 2 uM of HDAC substrate.
# HDAC5 = HDAC5 (Homo sapiens (Human), UniProt Q9UQL6); experiment: HDAC5 enzymatic assay; settings: selectivity profile; read-out: HDAC Enzyme IC50, HDAC 5
# Experimental: as §1, §2, §3, §4
# HDAC11 = HDAC11 (Homo sapiens (Human), UniProt Q96DB2); experiment: HDAC11 enzymatic assay; settings: selectivity profile; read-out: HDAC Enzyme IC50, HDAC 11
# Chain of HDAC11 (Q96DB2 whole entry, species assumed): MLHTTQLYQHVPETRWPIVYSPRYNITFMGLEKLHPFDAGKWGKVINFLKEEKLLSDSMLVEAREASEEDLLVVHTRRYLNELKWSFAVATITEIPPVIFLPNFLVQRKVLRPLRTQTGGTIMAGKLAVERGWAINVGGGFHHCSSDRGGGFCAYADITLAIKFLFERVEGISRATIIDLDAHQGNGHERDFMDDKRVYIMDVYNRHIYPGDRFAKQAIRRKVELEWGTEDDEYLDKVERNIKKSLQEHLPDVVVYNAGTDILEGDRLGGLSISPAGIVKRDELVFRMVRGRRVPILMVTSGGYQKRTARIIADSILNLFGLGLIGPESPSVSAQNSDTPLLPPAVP
# Experimental: as §1, §2, §3, §4
# HDAC6 = HDAC6 (Homo sapiens (Human), UniProt Q9UBN7); experiment: HDAC6 enzymatic assay
# Chain of HDAC6 (Q9UBN7 whole entry): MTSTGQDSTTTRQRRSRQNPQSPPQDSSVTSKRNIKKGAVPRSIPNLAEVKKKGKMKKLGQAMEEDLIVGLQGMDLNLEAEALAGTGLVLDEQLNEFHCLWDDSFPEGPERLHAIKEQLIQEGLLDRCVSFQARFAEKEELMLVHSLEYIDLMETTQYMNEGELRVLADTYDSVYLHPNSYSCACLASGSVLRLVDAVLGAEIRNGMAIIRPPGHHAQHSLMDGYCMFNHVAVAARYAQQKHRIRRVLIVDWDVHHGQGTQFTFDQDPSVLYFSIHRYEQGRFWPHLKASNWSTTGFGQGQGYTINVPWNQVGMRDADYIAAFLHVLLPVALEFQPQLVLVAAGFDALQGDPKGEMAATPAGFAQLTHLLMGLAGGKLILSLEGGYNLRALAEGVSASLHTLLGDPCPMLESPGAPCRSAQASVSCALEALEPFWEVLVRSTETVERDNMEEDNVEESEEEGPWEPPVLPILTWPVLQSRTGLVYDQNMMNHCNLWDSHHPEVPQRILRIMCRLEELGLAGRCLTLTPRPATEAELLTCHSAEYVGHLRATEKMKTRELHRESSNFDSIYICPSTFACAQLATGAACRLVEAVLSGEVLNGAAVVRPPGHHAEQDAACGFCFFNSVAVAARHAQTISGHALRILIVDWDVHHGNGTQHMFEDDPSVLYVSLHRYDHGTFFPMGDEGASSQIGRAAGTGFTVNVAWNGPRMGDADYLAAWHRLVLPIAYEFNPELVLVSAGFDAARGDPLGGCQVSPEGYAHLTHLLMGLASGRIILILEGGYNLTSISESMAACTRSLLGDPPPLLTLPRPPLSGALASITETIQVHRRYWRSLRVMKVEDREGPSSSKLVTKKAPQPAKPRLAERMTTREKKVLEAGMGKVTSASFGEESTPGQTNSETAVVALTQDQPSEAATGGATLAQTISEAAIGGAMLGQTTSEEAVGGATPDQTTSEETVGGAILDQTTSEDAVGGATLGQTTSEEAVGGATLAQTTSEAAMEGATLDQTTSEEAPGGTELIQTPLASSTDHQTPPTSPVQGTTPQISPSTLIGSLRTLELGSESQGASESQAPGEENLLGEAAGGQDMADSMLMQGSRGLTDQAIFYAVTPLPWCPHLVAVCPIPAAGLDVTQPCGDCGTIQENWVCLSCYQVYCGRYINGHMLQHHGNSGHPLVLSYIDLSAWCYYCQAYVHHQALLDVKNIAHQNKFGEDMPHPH
# Procedure, shortened: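 Following a 17 hour room-temperature incubation of 2 ng HDAC6 with 10 uM substrate and compound, 50 μl developer was added for another 20 minutes, and fluorescence (excitation 360 nm, emission 460 nm) was recorded. Activity was normalized to no-compound (100%) and no-enzyme (0%) wells, and IC50 came from sigmoidal dose-response fitting in Graphpad Prism.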
# HDAC10 = HDAC10 (Homo sapiens (Human), UniProt Q969S8); experiment: HDAC10 enzymatic assay; settings: selectivity profile; read-out: HDAC Enzyme IC50, HDAC 10
# Chain of HDAC10 (Q969S8 whole entry, species assumed): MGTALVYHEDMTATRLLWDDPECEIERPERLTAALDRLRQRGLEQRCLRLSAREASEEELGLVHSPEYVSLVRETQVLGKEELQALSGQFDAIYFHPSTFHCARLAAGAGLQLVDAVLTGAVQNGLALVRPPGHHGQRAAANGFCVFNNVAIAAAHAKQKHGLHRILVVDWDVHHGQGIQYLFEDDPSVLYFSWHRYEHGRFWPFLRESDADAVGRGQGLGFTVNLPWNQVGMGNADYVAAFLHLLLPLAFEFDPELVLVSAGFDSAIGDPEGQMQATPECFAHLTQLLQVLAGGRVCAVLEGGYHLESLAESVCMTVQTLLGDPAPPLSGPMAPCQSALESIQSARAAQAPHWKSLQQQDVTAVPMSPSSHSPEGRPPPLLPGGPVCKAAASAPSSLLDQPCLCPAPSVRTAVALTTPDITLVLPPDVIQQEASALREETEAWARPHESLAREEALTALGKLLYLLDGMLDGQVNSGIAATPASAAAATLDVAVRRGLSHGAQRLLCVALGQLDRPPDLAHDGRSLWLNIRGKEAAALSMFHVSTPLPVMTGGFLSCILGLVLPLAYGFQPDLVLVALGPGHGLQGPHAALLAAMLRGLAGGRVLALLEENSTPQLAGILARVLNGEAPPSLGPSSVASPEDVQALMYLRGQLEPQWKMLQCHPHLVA
# Experimental: as §1, §2, §3, §4
# HDAC9 = HDAC9 (Homo sapiens (Human), UniProt Q9UKV0); experiment: HDAC9 enzymatic assay; settings: selectivity profile; read-out: HDAC Enzyme IC50, HDAC 9
# Experimental: as §1, §2, §3, §4
# HDAC4 = HDAC4 (Homo sapiens (Human), UniProt P56524); experiment: HDAC4 enzymatic assay; settings: selectivity profile; read-out: HDAC Enzyme IC50, HDAC 4
# Chain of HDAC4 (P56524 whole entry, species assumed): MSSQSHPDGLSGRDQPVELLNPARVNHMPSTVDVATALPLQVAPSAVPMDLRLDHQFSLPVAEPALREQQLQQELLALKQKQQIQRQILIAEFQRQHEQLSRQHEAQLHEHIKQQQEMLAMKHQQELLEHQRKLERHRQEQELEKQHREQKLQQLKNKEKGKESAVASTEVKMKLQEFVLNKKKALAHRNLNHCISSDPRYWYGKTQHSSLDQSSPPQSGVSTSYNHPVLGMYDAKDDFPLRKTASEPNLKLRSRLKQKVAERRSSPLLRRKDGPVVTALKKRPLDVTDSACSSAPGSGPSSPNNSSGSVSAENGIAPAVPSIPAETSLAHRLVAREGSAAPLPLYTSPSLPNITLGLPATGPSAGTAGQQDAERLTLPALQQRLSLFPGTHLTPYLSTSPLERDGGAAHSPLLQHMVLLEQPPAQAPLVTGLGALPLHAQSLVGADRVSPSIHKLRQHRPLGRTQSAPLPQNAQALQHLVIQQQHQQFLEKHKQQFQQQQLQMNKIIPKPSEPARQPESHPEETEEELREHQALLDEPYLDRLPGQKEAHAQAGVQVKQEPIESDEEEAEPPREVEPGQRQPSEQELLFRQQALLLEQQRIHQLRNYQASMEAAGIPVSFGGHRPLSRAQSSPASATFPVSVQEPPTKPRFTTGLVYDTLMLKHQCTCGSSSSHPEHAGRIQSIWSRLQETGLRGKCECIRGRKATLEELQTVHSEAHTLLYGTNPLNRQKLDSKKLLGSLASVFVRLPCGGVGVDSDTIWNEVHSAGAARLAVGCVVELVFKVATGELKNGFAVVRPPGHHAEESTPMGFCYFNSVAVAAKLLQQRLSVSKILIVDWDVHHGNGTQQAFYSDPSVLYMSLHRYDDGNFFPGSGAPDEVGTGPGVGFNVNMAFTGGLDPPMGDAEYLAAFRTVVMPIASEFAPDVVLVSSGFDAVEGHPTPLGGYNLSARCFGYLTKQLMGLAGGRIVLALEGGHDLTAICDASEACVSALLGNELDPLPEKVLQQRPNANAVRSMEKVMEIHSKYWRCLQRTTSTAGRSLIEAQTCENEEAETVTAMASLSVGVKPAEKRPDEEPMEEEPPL
# Experimental: as §1, §2, §3, §4
# HDAC3/NCOR2 = HDAC3/NCOR2 (Homo sapiens (Human), UniProt O15379); experiment: HDAC3 enzymatic assay; settings: selectivity profile; read-out: HDAC Enzyme IC50, HDAC 3
# Experimental: as §1, §2, §3, §4
# HDAC1 = HDAC1 (Homo sapiens (Human), UniProt Q13547); experiment: HDAC1 enzymatic assay
# Chain of HDAC1 (Q13547 whole entry): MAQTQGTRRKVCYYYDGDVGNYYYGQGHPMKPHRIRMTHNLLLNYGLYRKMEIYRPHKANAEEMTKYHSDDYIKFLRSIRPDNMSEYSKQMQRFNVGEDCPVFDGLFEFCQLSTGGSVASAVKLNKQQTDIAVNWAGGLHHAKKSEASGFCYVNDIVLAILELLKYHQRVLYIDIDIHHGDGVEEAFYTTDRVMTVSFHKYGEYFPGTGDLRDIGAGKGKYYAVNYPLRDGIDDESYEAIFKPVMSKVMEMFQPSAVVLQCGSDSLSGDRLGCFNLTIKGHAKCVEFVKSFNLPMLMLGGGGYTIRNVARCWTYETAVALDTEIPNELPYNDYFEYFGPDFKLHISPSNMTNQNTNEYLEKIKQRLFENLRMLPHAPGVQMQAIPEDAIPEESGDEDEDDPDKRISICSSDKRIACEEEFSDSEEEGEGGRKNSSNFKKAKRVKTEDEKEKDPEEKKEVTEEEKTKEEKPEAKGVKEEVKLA
# Procedure, shortened: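 Compound inhibition of human HDAC1 (0.5 ng enzyme, 10 uM substrate) was assessed by fluorescence after developer treatment, excitation 360 nm and emission 460 nm. Percent activity was normalized to no-compound (100%) and no-enzyme (0%) controls, plotted against concentration, and fitted to a sigmoidal dose-response curve in Graphpad Prism to obtain IC50 at half-maximal activity.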
# HDAC2 = HDAC2 (Homo sapiens (Human), UniProt Q92769); experiment: HDAC2 enzymatic assay; settings: selectivity profile; read-out: HDAC Enzyme IC50, HDAC 2
# Chain of HDAC2 (Q92769 whole entry, species assumed): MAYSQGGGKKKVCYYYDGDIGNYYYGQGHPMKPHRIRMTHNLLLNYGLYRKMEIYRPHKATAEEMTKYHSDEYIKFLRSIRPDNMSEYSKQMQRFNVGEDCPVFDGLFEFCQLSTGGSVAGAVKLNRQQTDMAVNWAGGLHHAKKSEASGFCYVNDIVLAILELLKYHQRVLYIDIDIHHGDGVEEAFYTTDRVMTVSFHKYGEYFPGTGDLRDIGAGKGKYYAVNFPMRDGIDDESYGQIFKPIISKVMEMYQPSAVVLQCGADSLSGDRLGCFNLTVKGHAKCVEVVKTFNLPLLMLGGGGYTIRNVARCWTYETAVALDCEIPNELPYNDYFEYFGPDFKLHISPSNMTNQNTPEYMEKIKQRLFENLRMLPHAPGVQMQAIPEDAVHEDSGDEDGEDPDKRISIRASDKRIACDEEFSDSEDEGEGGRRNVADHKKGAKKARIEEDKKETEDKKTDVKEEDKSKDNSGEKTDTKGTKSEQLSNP
# Experimental: as §1, §2, §3, §4
# HDAC8 = HDAC8 (Homo sapiens (Human), UniProt Q9BY41); experiment: HDAC8 enzymatic assay; settings: selectivity profile; read-out: HDAC Enzyme IC50, HDAC 8
# Chain of HDAC8 (Q9BY41 whole entry, species assumed): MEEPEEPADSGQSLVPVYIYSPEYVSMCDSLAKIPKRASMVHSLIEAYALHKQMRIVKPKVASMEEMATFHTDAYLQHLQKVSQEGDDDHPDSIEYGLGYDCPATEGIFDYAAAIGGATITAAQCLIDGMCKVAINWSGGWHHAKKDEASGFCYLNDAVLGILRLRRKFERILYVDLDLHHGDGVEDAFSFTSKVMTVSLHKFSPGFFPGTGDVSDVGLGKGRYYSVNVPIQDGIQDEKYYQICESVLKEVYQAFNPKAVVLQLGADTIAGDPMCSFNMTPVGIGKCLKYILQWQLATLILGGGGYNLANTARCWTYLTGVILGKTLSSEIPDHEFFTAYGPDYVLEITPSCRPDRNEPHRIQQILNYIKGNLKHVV
# Experimental: as §1, §2, §3, §4
# [1] = selectivity profile, read-out: HDAC Enzyme IC50, HDAC 6
# [2] = selectivity profile, read-out: HDAC Enzyme IC50, HDAC 1
SMILES,pIC50 (HDAC7),pIC50 (HDAC5),pIC50 (HDAC11),pIC50 (HDAC6; read-out: Human HDAC6 IC50),pIC50 (HDAC6; [1]),pIC50 (HDAC10),pIC50 (HDAC9),pIC50 (HDAC4),pIC50 (HDAC3/NCOR2),pIC50 (HDAC1; read-out: Human HDAC1 IC50),pIC50 (HDAC1; [2]),pIC50 (HDAC2),pIC50 (HDAC8)
"C[C@@H](Nc1ncc(-c2nnc(C(F)F)o2)cn1)c1ccc(F)cc1F [Example 99-R, 5-[5-(difluoromethyl)-1,3,4-oxadiazol-2-yl]-N-[(1R)-1-(2,4-difluorophenyl)ethyl]pyrimidin-2-amine]",< 4.52,< 4.52,< 4.52,7.55,7.55,< 4.52,< 4.52,< 4.52,< 4.52,< 4.52,< 4.52,< 4.52,< 4.52
"Fc1ccc(C(CC(F)(F)F)Nc2ncc(-c3nnc(C(F)F)o3)cn2)cc1 (stereo not drawn) [Example 13, 5-(5-(difluoromethyl)-1,3,4-oxadiazol-2-yl)-N-(3,3,3-trifluoro-1-(4-fluorophenyl)propyl) pyrimidin-2-amine]",< 4.52,< 4.52,< 4.52,7.44,7.44,< 4.52,< 4.52,< 4.52,< 4.52,< 4.52,< 4.52,< 4.52,< 4.52
"Fc1ccc(C2(Nc3ncc(-c4nnc(C(F)F)o4)cn3)CC2)c(Cl)c1 [Example 62, N-(1-(2-chloro-4-fluorophenyl)cyclopropyl)-5-(5-(difluoromethyl)-1,3,4-oxadiazol-2-yl)pyrimidin-2-amine]",< 4.52,< 4.52,< 4.52,8.10,8.10,< 4.52,< 4.52,< 4.52,< 4.52,< 4.52,< 4.52,< 4.52,< 4.52
"CC(C)(Nc1ncc(-c2nnc(C(F)F)o2)cn1)c1ccc(F)cc1 [Example 9, 5-(5-(difluoromethyl)-1,3,4-oxadiazol-2-yl)-N-(2-(4-fluorophenyl)propan-2-yl)pyrimidin-2-amine]",< 4.52,< 4.52,< 4.52,7.42,7.42,< 4.52,< 4.52,< 4.52,< 4.52,< 4.52,< 4.52,< 4.52,< 4.52
"Fc1cccc(F)c1C1(Nc2ncc(-c3nnc(C(F)F)o3)cn2)CC1 [Example 11, 5-(5-(difluoromethyl)-1,3,4-oxadiazol-2-yl)-N-(1-(2,6-difluorophenyl)cyclopropyl)pyrimidin-2-amine]",< 4.52,< 4.52,< 4.52,8.22,8.22,< 4.52,< 4.52,< 4.52,< 4.52,< 4.00,< 4.00,< 4.52,< 4.52
"CS(=O)(=O)CC(Nc1ncc(-c2nnc(C(F)F)o2)cn1)c1ccc(F)cc1 (single isomer, unassigned) [161(+), 5-(5-(difluoromethyl)-1,3,4-oxadiazol-2-yl)-N-(1-(4-fluorophenyl)-2-(methylsulfonyl)ethyl)pyrimidin-2-amine]",< 4.52,< 4.52,< 4.52,7.37,7.37,< 4.52,< 4.52,< 4.52,< 4.52,< 4.52,< 4.52,< 4.52,< 4.52
"O=C(NCC(Nc1ncc(-c2nnc(C(F)F)o2)cn1)c1ccc(F)cc1)C1CC1 (single isomer, unassigned) [168(+), N-(2-((5-(5-(difluoromethyl)-1,3,4-oxadiazol-2-yl)pyrimidin-2-yl)amino)-2-(4-fluorophenyl)ethyl)cyclopropanecarboxamide]",4.61,< 4.52,< 4.52,7.54,7.54,< 4.52,< 4.52,4.86,< 4.52,< 4.52,< 4.52,< 4.52,< 4.52
"Fc1ccc(C2(Nc3ncc(-c4nnc(C(F)F)o4)cn3)CC2)cc1 [Example 5, 5-(5-(difluoromethyl)-1,3,4-oxadiazol-2-yl)-N-(1-(4-fluorophenyl)cyclopropyl)pyrimidin-2-amine]",< 4.52,< 4.52,< 4.52,7.47,7.47,< 4.52,< 4.52,< 4.52,< 4.52,< 4.00,< 4.00,< 4.52,< 4.52
"FC(F)c1nnc(-c2cnc(NC3(c4ccccc4)CC3)nc2)o1 [Example 4, 5-(5-(difluoromethyl)-1,3,4-oxadiazol-2-yl)-N-(1-phenylcyclopropyl)pyrimidin-2-amine]",< 4.52,< 4.52,< 4.52,7.64,7.64,< 4.52,< 4.52,< 4.52,< 4.52,< 4.52,< 4.52,< 4.52,< 4.52
